From patent US20240262826A1, “WILD TYPE KIT INHIBITORS” (Blueprint Medicines Corporation, priority 2022, published 2024)

Target: wild type c-kit (Homo sapiens (Human), UniProt P10721)
Assay: PathScan phospho c-kit (Tyr719) sandwich ELISA in SCF-stimulated M-07e cells (pKIT assay)
Format: cell-based
Conditions: ELISA assay (values not marked *)
Source text: The ability of compounds of the disclosure (described herein as test compounds) to inhibit autophosphorylation of wild type c-kit was measures using either a PathScan phospho c-kit (Tyr719) sandwich ELISA (CST #7298) or a Phospho c-Kit (Tyr721) Assay Whole Cell Lysate Kit (MSD: 515DPD/catalog number K15119D-2).
For the PathScan phospho c-kit (Tyr719) sandwich ELISA: M-07e cells were resuspended at 2×10^6 cells/mL in phenol red free, serum-free, GM-CSF-free Iscove's Modified Dulbecco's Medium (IMDM) media with 1% Penicillin-Streptomycin. The cells were then dispensed into the wells of a U-bottom, 96-well plate at 50 uL per well using a multichannel pipet. The plate was allowed to incubate at 37° C. in a humidified tissue culture incubator for 4 hours.
After 4 hours of incubation, each well was dosed with 6.25 uL of test compound at a final DMSO concentration of 0.25% for 60 min at 37° C. to generate an 8-point dose concentration series of test compounds in duplicate. Cells were then incubated for 1 hour at 37° C. in a humidified tissue culture incubator. Next, human SCF at 500 ng/mL was added to the appropriate wells at 6.25 uL/well and the plate was shaken at 450 rpm at room temperature for 10 minutes. AlphaLISA 5× Lysis Buffer supplemented with 1× protease and phosphatase inhibitor was then added at 16 uL/well. The plate was sealed with an adherent cover and shaken at 4° C. at 600 rpm for 30 minutes. After this period of lysis, the plate was stored at −80° C.
When the 96-well plate containing M07e lysates was ready to be processed, the plate was brought to room temperature and 40 μl from each well was transferred to the wells of a PathScan Phospho-c-Kit (Tyr719) Sandwich ELISA plate (CST, Catalog #7298). The ELISA plate was sealed with an adherent cover and incubated for 2 hours at 37° C. Next, the wells were washed 4 times with the provided 1× Wash Buffer, and 100 uL/well of reconstituted Detection Antibody was added to each well, the plate sealed with an adherent cover, and incubated at 37° C. for 1 hour. The wash procedure was repeated and 100 uL/well of reconstituted HRP-Linked secondary antibody was added. The plate was sealed with an adherent cover and incubated at 37° C. for 1 hour. The wash procedure was repeated and 100 uL/well of TMB Substrate was added. The plate was incubated for 10 minutes at room temperature or until the positive reaction elicited a blue color in the appropriate wells. 100 uL/well of STOP solution was added and shaken gently for a few seconds a microplate reader or conventional spectrophotometer e.g., a Perkin Elmer Envision multimode plate reader, part #2105-0010.
An IC50 was calculated using a 4-parameter logistic nonlinear regression.

Sequence of wild type c-kit (P10721 26-976): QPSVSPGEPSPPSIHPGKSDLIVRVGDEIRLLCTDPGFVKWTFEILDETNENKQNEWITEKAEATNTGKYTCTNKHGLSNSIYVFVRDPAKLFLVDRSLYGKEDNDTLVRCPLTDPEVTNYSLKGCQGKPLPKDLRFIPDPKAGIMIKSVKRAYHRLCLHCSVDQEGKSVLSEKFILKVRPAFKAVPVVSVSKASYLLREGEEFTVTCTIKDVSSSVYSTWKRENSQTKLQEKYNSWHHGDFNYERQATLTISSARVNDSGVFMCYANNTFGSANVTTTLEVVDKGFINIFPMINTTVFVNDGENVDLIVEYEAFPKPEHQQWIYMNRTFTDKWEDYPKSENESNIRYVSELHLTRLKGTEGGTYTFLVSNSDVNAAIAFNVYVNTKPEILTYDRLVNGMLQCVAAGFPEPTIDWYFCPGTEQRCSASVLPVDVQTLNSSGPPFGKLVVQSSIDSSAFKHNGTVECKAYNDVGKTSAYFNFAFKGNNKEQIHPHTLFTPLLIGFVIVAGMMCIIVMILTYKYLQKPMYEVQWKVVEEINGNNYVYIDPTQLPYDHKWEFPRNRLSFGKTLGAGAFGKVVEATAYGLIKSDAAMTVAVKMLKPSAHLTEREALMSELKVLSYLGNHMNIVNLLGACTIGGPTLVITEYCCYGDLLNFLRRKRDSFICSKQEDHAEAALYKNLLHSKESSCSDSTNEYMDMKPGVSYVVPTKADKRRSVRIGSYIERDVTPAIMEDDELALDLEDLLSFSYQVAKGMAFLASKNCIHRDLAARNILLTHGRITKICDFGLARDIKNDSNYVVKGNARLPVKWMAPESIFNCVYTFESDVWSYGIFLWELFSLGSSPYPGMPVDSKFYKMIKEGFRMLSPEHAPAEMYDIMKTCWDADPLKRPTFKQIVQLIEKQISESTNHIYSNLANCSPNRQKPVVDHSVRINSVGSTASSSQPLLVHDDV

| Structure (SMILES) | IC50 [nM] |
| --- | --- |
| Cn1nnc(-c2ccc(Cl)c(NC(=O)c3cnn4ccc(-c5cnn(CCO)c5)cc34)c2)n1 [Example 218, N-(2-chloro-5-(2-methyl-2H-tetrazol-5-yl)phenyl)-5-(1-(2-hydroxyethyl)-1H-pyrazol-4-yl)pyrazolo[1,5-a]pyridine-3-carboxamide] | 5.2 |
| COC(=O)N1CC(c2cnn(-c3ccc(C)c(NC(=O)c4cnn5ccc(N6CCN(C7COC7)CC6)cc45)c3)n2)C1 [Example 83, methyl 3-(2-(4-methyl-3-(5-(4-(oxetan-3-yl)piperazin-1-yl)pyrazolo[1,5-a]pyridine-3-carboxamido)phenyl)-2H-1,2,3-triazol-4-yl)azetidine-1-carboxylate] | 50.4 |
| COCCNc1ccn2ncc(C(=O)Nc3cc(-n4nnc(C5CN(C(=O)OC)C5)n4)ccc3C)c2c1 [Example 125, methyl 3-(2-(3-(5-((2-methoxyethyl)amino)pyrazolo[1,5-a]pyridine-3-carboxamido)-4-methylphenyl)-2H-tetrazol-5-yl)azetidine-1-carboxylate] | 7.2 |
| O=C(Nc1cc(-c2nnn(C3CC(F)(F)C3)n2)ccc1Cl)c1cnn2ccc(N3CCOCC3)cc12 [Example 169, N-(2-chloro-5-(2-(3,3-difluorocyclobutyl)-2H-tetrazol-5-yl)phenyl)-5-morpholinopyrazolo[1,5-a]pyridine-3-carboxamide] | 4.7 |
| COC(=O)N1CC(n2nnc(-c3ccc(C)c(NC(=O)c4cnn5ccc(N6CCO[C@@H](CO)C6)cc45)c3)n2)C1 [Example 91, methyl (R)-3-(5-(3-(5-(2-(hydroxymethyl)morpholino)pyrazolo[1,5-a]pyridine-3-carboxamido)-4-methylphenyl)-2H-tetrazol-2-yl)azetidine-1-carboxylate] | 50.9 |
| Cc1cc(Cl)c(-c2nnn(C3CC3)n2)cc1NC(=O)c1cnn2ccc(-c3cnn(CC(C)(C)O)c3)cc12 [Example 226, N-(4-chloro-5-(2-cyclopropyl-2H-tetrazol-5-yl)-2-methylphenyl)-5-(1-(2-hydroxy-2-methylpropyl)-1H-pyrazol-4-yl)pyrazolo[1,5-a]pyridine-3-carboxamide] | 0.5 |
| COCCNc1cc2c(C(=O)Nc3cc(-c4nnn(C5CN(C(=O)OC)C5)n4)ccc3C)cnn2cc1C [Example 144, methyl 3-(5-(3-(5-((2-methoxyethyl)amino)-6-methylpyrazolo[1,5-a]pyridine-3-carboxamido)-4-methylphenyl)-2H-tetrazol-2-yl)azetidine-1-carboxylate] | 23.4 |
| Cc1ccc(-c2nnn([C@H]3C[C@H](C(F)(F)F)C3)n2)cc1NC(=O)c1cnn2ccc(NCCO)cc12 [Example 121, 5-((2-hydroxyethyl)amino)-N-(2-methyl-5-(2-((1r,3r)-3-(trifluoromethyl)cyclobutyl)-2H-tetrazol-5-yl)phenyl)pyrazolo[1,5-a]pyridine-3-carboxamide or 5-((2-hydroxyethyl)amino)-N-(2-methyl-5-(2-((1s,3s)-3-(trifluoromethyl)cyclobutyl)-2H-tetrazol-5-yl)phenyl)pyrazolo[1,5-a]pyridine-3-carboxamide] | 11.9 |
| O=C(Nc1cc(-c2nnn(CC3CC3(F)F)n2)ccc1Cl)c1cnn2ccccc12 (stereo not shown) [Example 16, N-(2-chloro-5-(2-((2,2-difluorocyclopropyl)methyl)-2H-tetrazol-5-yl)phenyl)pyrazolo[1,5-a]pyridine-3-carboxamide] | 2.3 |
| Cc1ccc(-c2cnn(C3CC3)n2)cc1NC(=O)c1cnn2ccccc12 [Example 29, N-(5-(2-cyclopropyl-2H-1,2,3-triazol-4-yl)-2-methylphenyl)pyrazolo[1,5-a]pyridine-3-carboxamide] | 11.1 |
| Cc1cc(F)c(NC(=O)c2cnn3ccc(-c4cnn(CC(C)(C)O)c4)cc23)cc1-c1nnn(C2CC2)n1 [Example 215, N-(5-(2-cyclopropyl-2H-tetrazol-5-yl)-2-fluoro-4-methylphenyl)-5-(1-(2-hydroxy-2-methylpropyl)-1H-pyrazol-4-yl)pyrazolo[1,5-a]pyridine-3-carboxamide] | 23.7 |
| COCCNc1ccn2ncc(C(=O)Nc3cc(-c4nnn(C5CC6(CCC6)C5)n4)ccc3C)c2c1 [Example 150, 5-((2-methoxyethyl)amino)-N-(2-methyl-5-(2-(spiro[3.3]heptan-2-yl)-2H-tetrazol-5-yl)phenyl)pyrazolo[1,5-a]pyridine-3-carboxamide] | 3.4 |
| COC(=O)N1CC(n2nnc(-c3ccc(C)c(NC(=O)c4cnn5ccc(N6CCC[C@H](O)C6)cc45)c3)n2)C1 [Example 70, methyl (S)-3-(5-(3-(5-(3-hydroxypiperidin-1-yl)pyrazolo[1,5-a]pyridine-3-carboxamido)-4-methylphenyl)-2H-tetrazol-2-yl)azetidine-1-carboxylate] | 53.1 |
| Cc1ccc(-c2nnn(C3CC3)n2)cc1NC(=O)c1cnn2ccc(-c3cnn(CCN4CCN(C)CC4)c3)cc12 [Example 219, N-(5-(2-cyclopropyl-2H-tetrazol-5-yl)-2-methylphenyl)-5-(1-(2-(4-methylpiperazin-1-yl)ethyl)-1H-pyrazol-4-yl)pyrazolo[1,5-a]pyridine-3-carboxamide] | 1.1 |
| CC(C)(O)Cn1cc(-c2ccn3ncc(C(=O)Nc4cc(-n5nnc(C6CC6)n5)ccc4F)c3c2)cn1 [Example 217, N-(5-(5-cyclopropyl-2H-tetrazol-2-yl)-2-fluorophenyl)-5-(1-(2-hydroxy-2-methylpropyl)-1H-pyrazol-4-yl)pyrazolo[1,5-a]pyridine-3-carboxamide] | 8.1 |
| Cc1ccc(-c2nnn(C3CN(S(=O)(=O)CCC(F)F)C3)n2)cc1NC(=O)c1cnn2ccccc12 [Example 184, N-(5-(2-(1-((3,3-difluoropropyl)sulfonyl)azetidin-3-yl)-2H-tetrazol-5-yl)-2-methylphenyl)pyrazolo[1,5-a]pyridine-3-carboxamide] | 6.2 |
| Cc1nn([C@H](C)[C@@H](C)O)cc1-c1ccn2ncc(C(=O)Nc3cc(-c4nnn(C5CC5)n4)c(F)cc3Cl)c2c1 (single isomer, unassigned) [Example 287, N-(2-chloro-5-(2-cyclopropyl-2H-tetrazol-5-yl)-4-fluorophenyl)-5-(1-((2R,3R)-3-hydroxybutan-2-yl)-3-methyl-1H-pyrazol-4-yl)pyrazolo[1,5-a]pyridine-3-carboxamide or N-(2-chloro-5-(2-cyclopropyl-2H-tetrazol-5-yl)-4-fluorophenyl)-5-(1-((2S,3S)-3-hydroxybutan-2-yl)-3-methyl-1H-pyrazol-4-yl)pyrazolo[1,5-a]pyridine-3-carboxamide] | 0.9 |
| COC(=O)N1CC(n2nnc(-c3ccc(C)c(NC(=O)c4cnn5ccc(N6CCN7CCC[C@@H]7C6)cc45)c3)n2)C1 [Example 75, methyl (R)-3-(5-(3-(5-(hexahydropyrrolo[1,2-a]pyrazin-2(1H)-yl)pyrazolo[1,5-a]pyridine-3-carboxamido)-4-methylphenyl)-2H-tetrazol-2-yl)azetidine-1-carboxylate] | 9.6 |
| Cc1cc(C2CC2)c(-c2nnn(C3CC(F)(F)C3)n2)cc1NC(=O)c1cnn2ccc(N3CCOCC3)cc12 [Example 166, N-(4-cyclopropyl-5-(2-(3,3-difluorocyclobutyl)-2H-tetrazol-5-yl)-2-methylphenyl)-5-morpholinopyrazolo[1,5-a]pyridine-3-carboxamide] | 37.7 |
| [2H]C([2H])([2H])N1CCN(c2ccn3ncc(C(=O)Nc4cc(-c5nnn(C6CN(C(=O)OC)C6)n5)ccc4C)c3c2)CC1 [Example 72, methyl 3-(5-(4-methyl-3-(5-(4-(methyl-d3)piperazin-1-yl)pyrazolo[1,5-a]pyridine-3-carboxamido)phenyl)-2H-tetrazol-2-yl)azetidine-1-carboxylate] | 38.4 |
| Cc1ccc(-c2nnn(C3CN(S(=O)(=O)C4COC4)C3)n2)cc1NC(=O)c1cnn2ccccc12 [Example 183, N-(2-methyl-5-(2-(1-(oxetan-3-ylsulfonyl)azetidin-3-yl)-2H-tetrazol-5-yl)phenyl)pyrazolo[1,5-a]pyridine-3-carboxamide] | 45.4 |
| Cc1ccc(-c2nnn(C)n2)cc1NC(=O)c1cnn2ccc(-c3cn(CCO)nc3C)cc12 [Example 228, 5-(1-(2-hydroxyethyl)-3-methyl-1H-pyrazol-4-yl)-N-(2-methyl-5-(2-methyl-2H-tetrazol-5-yl)phenyl)pyrazolo[1,5-a]pyridine-3-carboxamide] | 1.5 |
